PubChem BioAssay AID256 (DTP/NCI, 2004)
“And” between values parts separate entries of the source, which are not always exact repeats. Equal values may be shown once. Inconclusive results and toxic doses are left out.

System: CD2F1 mice, L1210 leukemia ip, survival T/C
Assay: NCI In Vivo Anticancer Drug Screen. Data for tumor model L1210 Leukemia (intraperitoneal) in CD2F1 (CDF1) mice
Settings: higher = longer survival
Procedure, shortened: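 In this screen, transplantable tumors were grown in mice given either the compound or its vehicle. Results were expressed as the treated measurement relative to the control measurement.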

CN1CCCN(O)C1=O
T/C (endpoint: mean survival time, dose: 37.5 mg/kg/injection, schedule: Q01DX007 (ip), vehicle: saline): 94 % of control | T/C (endpoint: mean survival time, dose: 75.0 mg/kg/injection, schedule: Q01DX007 (ip), vehicle: saline): 92 % of control | T/C (endpoint: mean survival time, dose: 150.0 mg/kg/injection, schedule: Q01DX007 (ip), vehicle: saline): 94 % of control | T/C (endpoint: mean survival time, dose: 300.0 mg/kg/injection, schedule: Q01DX007 (ip), vehicle: saline): 100 % of control | T/C (endpoint: mean survival time, dose: 600.0 mg/kg/injection, schedule: Q01DX007 (ip), vehicle: saline): 100 % of control

OCCOc1ccc2ccccc2c1-c1c(OCCOc2ccc3ccccc3c2-c2c(OCCO)ccc3ccccc23)ccc2ccccc12
T/C (endpoint: mean survival time, dose: 25.0 mg/kg/injection, schedule: Q01DX001 (ip), vehicle: saline with Tween-80): 95 % of control | T/C (endpoint: mean survival time, dose: 50.0 mg/kg/injection, schedule: Q01DX001 (ip), vehicle: saline with Tween-80): 91 % of control | T/C (endpoint: mean survival time, dose: 100.0 mg/kg/injection, schedule: Q01DX001 (ip), vehicle: saline with Tween-80): 86 % of control | T/C (endpoint: mean survival time, dose: 400.0 mg/kg/injection, schedule: Q01DX001 (ip), vehicle: saline with Tween-80): 86 % of control

C1CCC(C2CCCC[N-]2)[N-]C1.CC(C)C([NH-])C(=O)O.[Cl][Pt] (stereo not given)
T/C (endpoint: median survival time, dose: 10.0 mg/kg/injection, schedule: Q04DX003 (ip), vehicle: saline): 101 % of control | T/C (endpoint: median survival time, dose: 20.0 mg/kg/injection, schedule: Q04DX003 (ip), vehicle: saline): 102 % of control | T/C (endpoint: median survival time, dose: 40.0 mg/kg/injection, schedule: Q04DX003 (ip), vehicle: saline): 100 % of control | T/C (endpoint: median survival time, dose: 80.0 mg/kg/injection, schedule: Q04DX003 (ip), vehicle: saline): 94 % of control and 96 % of control | T/C (endpoint: median survival time, dose: 160.0 mg/kg/injection, schedule: Q04DX003 (ip), vehicle: saline): 97 % of control

O=C(O)C1(c2ccccc2)CC1
T/C (endpoint: mean survival time, dose: 100.0 mg/kg/injection, schedule: Q01DX009 (ip), vehicle: saline sonified): 88 % of control | T/C (endpoint: mean survival time, dose: 100.0 mg/kg/injection, schedule: Q04DX003 (ip), vehicle: saline with Tween-80): 97 % of control | T/C (endpoint: mean survival time, dose: 200.0 mg/kg/injection, schedule: Q01DX009 (ip), vehicle: saline sonified): 92 % of control | T/C (endpoint: mean survival time, dose: 200.0 mg/kg/injection, schedule: Q04DX003 (ip), vehicle: saline with Tween-80): 97 % of control | T/C (endpoint: mean survival time, dose: 400.0 mg/kg/injection, schedule: Q01DX009 (ip), vehicle: saline sonified): 94 % of control | T/C (endpoint: mean survival time, dose: 400.0 mg/kg/injection, schedule: Q04DX003 (ip), vehicle: saline with Tween-80): 110 % of control

O=S(=O)(O)c1ccc(O)c(S(=O)(=O)O)c1
T/C (endpoint: mean survival time, dose: 100.0 mg/kg/injection, schedule: Q01DX001 (ip), vehicle: saline): 97 % of control | T/C (endpoint: mean survival time, dose: 200.0 mg/kg/injection, schedule: Q01DX001 (ip), vehicle: saline): 101 % of control | T/C (endpoint: mean survival time, dose: 400.0 mg/kg/injection, schedule: Q01DX001 (ip), vehicle: saline): 97 % of control

COC(=O)Nc1ccccc1OS(=O)(=O)N(C)C
T/C (endpoint: mean survival time, dose: 25.0 mg/kg/injection, schedule: Q01DX009 (ip), vehicle: saline with Tween-80): 95 % of control | T/C (endpoint: mean survival time, dose: 50.0 mg/kg/injection, schedule: Q01DX009 (ip), vehicle: saline with Tween-80): 104 % of control | T/C (endpoint: mean survival time, dose: 100.0 mg/kg/injection, schedule: Q01DX009 (ip), vehicle: saline with Tween-80): 96 % of control and 103 % of control

NC(=O)CCC(N)C(=O)O (stereo not given)
T/C (endpoint: mean survival time, dose: 1.56 mg/kg/injection, schedule: Q01DX009 (ip), vehicle: saline): 93 % of control | T/C (endpoint: mean survival time, dose: 3.13 mg/kg/injection, schedule: Q01DX009 (ip), vehicle: saline): 104 % of control | T/C (endpoint: mean survival time, dose: 6.25 mg/kg/injection, schedule: Q01DX009 (ip), vehicle: saline): 104 % of control | T/C (endpoint: median survival time, dose: 25.0 mg/kg/injection, schedule: Q01DX009 (ip), vehicle: saline): 94 % of control | T/C (endpoint: median survival time, dose: 50.0 mg/kg/injection, schedule: Q01DX009 (ip), vehicle: saline): 106 % of control | T/C (endpoint: median survival time, dose: 100.0 mg/kg/injection, schedule: Q01DX009 (ip), vehicle: saline): 106 % of control | T/C (endpoint: median survival time, dose: 200.0 mg/kg/injection, schedule: Q01DX009 (ip), vehicle: saline): 106 % of control | T/C (endpoint: median survival time, dose: 400.0 mg/kg/injection, schedule: Q01DX009 (ip), vehicle: saline): 104 % of control

C=CC(=O)OCCCS(=O)(=O)[O-].C=CC(=O)OCCCS(=O)(=O)[O-].NC1CCCCC1N.[Pt+4]
T/C (endpoint: median survival time, dose: 3.12 mg/kg/injection, schedule: Q04DX003 (ip), vehicle: saline with Tween-80): 108 % of control | T/C (endpoint: median survival time, dose: 6.25 mg/kg/injection, schedule: Q04DX003 (ip), vehicle: saline with Tween-80): 119 % of control and 109 % of control | T/C (endpoint: median survival time, dose: 12.5 mg/kg/injection, schedule: Q04DX003 (ip), vehicle: saline with Tween-80): 119 % of control and 109 % of control | T/C (endpoint: median survival time, dose: 25.0 mg/kg/injection, schedule: Q04DX003 (ip), vehicle: saline with Tween-80): 113 % of control and 120 % of control | T/C (endpoint: median survival time, dose: 100.0 mg/kg/injection, schedule: Q04DX003 (ip), vehicle: saline with Tween-80): 158 % of control and 168 % of control | T/C (endpoint: median survival time, dose: 200.0 mg/kg/injection, schedule: Q04DX003 (ip), vehicle: saline with Tween-80): 204 % of control and 301 % of control
